The term IC50 denotes the concentration that inhibits the measured activity by half. Read a high IC50 as weaker potency in that assay.

The text below walks through data of BindingDB's records for doi:10.7270/Q2639NCQ (The Scripps Research Institute Molecular Screening Center, 2013).

The assay deals with T1, Mitochondrial peptide methionine sulfoxide reductase (Bos taurus, UniProt P54149).
T1 sequence (P54149 whole entry): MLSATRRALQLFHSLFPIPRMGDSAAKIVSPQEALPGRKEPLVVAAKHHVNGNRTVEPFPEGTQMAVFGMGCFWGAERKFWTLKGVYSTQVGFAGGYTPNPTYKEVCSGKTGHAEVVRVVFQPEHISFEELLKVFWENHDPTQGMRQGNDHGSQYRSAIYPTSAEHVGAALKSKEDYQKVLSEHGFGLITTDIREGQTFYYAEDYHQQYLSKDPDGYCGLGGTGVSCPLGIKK
On to `O=C(O)c1cccc(N=NCc2sc(N3CCOCC3)nc2-c2ccccc2)c1` [3-[(2E)-2-[(2-morpholin-4-yl-4-phenyl-1,3-thiazol-5-yl)methylidene]hydrazinyl]benzoic acid], for which the IC50 is > 155 µM. The figure for `O=C(O)c1cccc(NS(=O)(=O)c2ccc3c(c2)C(=O)c2ccccc2C3=O)c1` [3-[[9,10-bis(oxidanylidene)anthracen-2-yl]sulfonylamino]benzoic acid] is > 155 µM; for `N#CC1C(=N)Oc2c(O)cc3ccccc3c2C1c1ccsc1` (stereo not given) [3-amino-5-hydroxy-1-(3-thiophenyl)-1H-benzo[f][1]benzopyran-2-carbonitrile] it is > 155 µM. The figure for `O=C(c1ccccc1)c1coc2c1C(=O)c1ccccc1C2=O` [3-benzoylbenzo[f]benzofuran-4,9-dione] is > 155 µM; for `N#Cc1c(N2CCCC2)ccc(Br)c1Cl` [3-bromo-2-chloro-6-tetrahydro-1H-pyrrol-1-ylbenzonitrile] it is > 155 µM; for `O=C1C(Cl)=C(NCCCN2CCOCC2)C(=O)N1CCc1ccccc1` [3-chloro-4-{[3-(4-morpholinyl)propyl]amino}-1-(2-phenylethyl)-1H-pyrrole-2,5-dione] it is > 155 µM. As to `CCc1noc(C)c1C(=O)Nc1nc(-c2ccc(F)cc2)c(C)s1` [3-ethyl-N-[4-(4-fluorophenyl)-5-methyl-1,3-thiazol-2-yl]-5-methyl-1,2-oxazole-4-carboxamide], the half-maximal inhibitory concentration (IC50) is > 155 µM. Next, `CC(N=Nc1ccc(C#N)cc1[N+](=O)[O-])C1C=CC(=O)C=C1` (stereo not given) [3-nitro-4-[2-[1-(4-oxidanylidenecyclohexa-2,5-dien-1-ylidene)ethyl]hydrazinyl]benzenecarbonitrile]: > 155 µM; `CCOC(=O)c1cc2c(ccc3ccccc32)oc1=O` [3-oxo-2-benzo[f][1]benzopyrancarboxylic acid ethyl ester]: > 155 µM. Next, `NC(=O)c1ccc(Nc2ccc3c(c2)CCC3)c([N+](=O)[O-])c1` [4-(2,3-dihydro-1H-inden-5-ylamino)-3-nitro-benzamide]: > 155 µM; `Cc1cc(C)c2nc(C(F)(F)F)nc(N3CC(C)OC(C)C3)c2c1` (stereo not given) [4-(2,6-dimethyl-4-morpholinyl)-6,8-dimethyl-2-(trifluoromethyl)quinazoline]: > 155 µM; `c1ccc2c(c1)CCCN2c1nc2ccccc2n2cnnc12` [4-(3,4-dihydro-2H-quinolin-1-yl)-[1,2,4]triazolo[4,3-a]quinoxaline]: > 155 µM. Regarding `CCCCCc1c(-c2cccc(OC)c2)ncn1CCc1ccccc1OC` [4-(3-methoxyphenyl)-1-[2-(2-methoxyphenyl)ethyl]-5-pentyl-imidazole;2,2,2-tris(fluoranyl)ethanoic acid], the IC50 was > 155 µM. Next, `COc1ccc(-c2cc(=O)oc3c(C)c(OC(C)C(C)=O)ccc23)cc1` (stereo not given) [4-(4-methoxyphenyl)-8-methyl-7-(3-oxobutan-2-yloxy)-1-benzopyran-2-one]: > 155 µM. The figure for `c1ccc2c(c1)nc(N1CCOCC1)c1nnnn12` [4-(4-tetrazolo[1,5-a]quinoxalinyl)morpholine] is > 155 µM; for `C#Cc1cccc(Nc2nc(NCCOC)nc3ccsc23)c1` [4-N-(3-ethynylphenyl)-2-N-(2-methoxyethyl)thieno[3,2-d]pyrimidine-2,4-diamine] it is > 155 µM; for `Cc1ccc(S(=O)(=O)NCCNc2ccc([N+](=O)[O-])cc2C(F)(F)F)cc1` [4-methyl-N-(2-{[4-nitro-2-(trifluoromethyl)phenyl]amino}ethyl)benzenesulfonamide] it is > 155 µM. Consider `Cc1cc(OCC(=O)N2CCc3ccccc3C2)c2c(-c3ccccc3)cc(=O)oc2c1` [5-[2-(3,4-dihydro-2(1H)-isoquinolinyl)-2-oxoethoxy]-7-methyl-4-phenyl-2H-chromen-2-one], for which the 50% inhibitory concentration (IC50) was > 155 µM.

In the case of `CC(Nc1cc(N2CCN(S(C)(=O)=O)CC2)ccc1[N+](=O)[O-])c1ccccc1` (stereo not given) [5-[4-(methylsulfonyl)-1-piperazinyl]-2-nitro-N-(1-phenylethyl)aniline], the IC50 is > 155 µM. Regarding `COC(=O)c1ccc(S(=O)(=O)N2CCCN(Cc3cccc(Br)c3F)CC2)n1C` [5-[[4-[(3-bromo-2-fluorophenyl)methyl]-1,4-diazepan-1-yl]sulfonyl]-1-methyl-2-pyrrolecarboxylic acid methyl ester], the 50% inhibitory concentration (IC50) was > 155 µM. With `O=[N+]([O-])c1cc([N+](=O)[O-])c(N2CCOCC2)cc1NCc1ccccc1` [5-morpholin-4-yl-2,4-dinitro-N-(phenylmethyl)aniline], the concentration for half-maximal inhibition (IC50) was > 155 µM.

As for `Cc1ccccc1-n1c(SCc2cccc(F)c2)nc2[nH]ncc2c1=O` [6-[(3-fluorobenzyl)thio]-5-(2-methylphenyl)-2,5-dihydro-4H-pyrazolo[3,4-d]pyrimidin-4-one], the IC50 was > 155 µM. Next, `CCC(C)c1ccccc1NC(=O)COC(=O)C1=NN(c2ccccc2)C(=O)CC1` (stereo not given) [6-oxo-1-phenyl-4,5-dihydropyridazine-3-carboxylic acid [2-(2-butan-2-ylanilino)-2-oxoethyl] ester]: > 155 µM; `CCc1nccn1C(=O)c1cnn2c(C(F)F)cc(-c3ccc(C)cc3)nc12` [7-(difluoromethyl)-3-[(2-ethyl-1H-imidazol-1-yl)carbonyl]-5-(4-methylphenyl)pyrazolo[1,5-a]pyrimidine]: > 155 µM. For the molecule `Cc1c(O)ccc2c(-c3ccccc3)cc(=O)oc12` [7-hydroxy-8-methyl-4-phenyl-1-benzopyran-2-one], the 50% inhibitory concentration (IC50) was > 155 µM. `COc1cccc(Nc2nc3cc(OC)ccc3cc2C#N)c1` [7-methoxy-2-(3-methoxyanilino)-3-quinolinecarbonitrile]: the IC50 was > 155 µM. For `CC(=O)COc1ccc2c(-c3ccccc3)cc(=O)oc2c1C` [8-methyl-7-(2-oxidanylidenepropoxy)-4-phenyl-chromen-2-one], the IC50 was > 155 µM. The figure for `COC(=O)N1[C@H](C)C=C[C@]1(Cc1ccccc1)C(=O)NCCCNc1ncc(C(F)(F)F)cc1Cl` [(2R,5R)-5-[[3-[[3-chloro-5-(trifluoromethyl)-2-pyridinyl]amino]propylamino]-oxomethyl]-2-methyl-5-(phenylmethyl)-2H-pyrrole-1-carboxylic acid methyl ester] is > 155 µM; for `Cc1cccc(Nc2oc3cc(=O)ccc-3cc2C(N)=O)c1` [(2Z)-7-hydroxy-2-[(3-methylphenyl)imino]-2H-chromene-3-carboxamide] it is > 155 µM. The figure for `Cc1ccc(Nc2[nH]nc(C)c2[N+](=O)[O-])cc1C` [(3,4-Dimethyl-phenyl)-(5-methyl-4-nitro-2H-pyrazol-3-yl)-amine] is > 155 µM; for `COc1ccccc1-c1[nH]nc2c1[C@H](C)CC[C@H]2C(C)C` [(4R,7S)-3-(2-methoxyphenyl)-4-methyl-7-propan-2-yl-4,5,6,7-tetrahydro-1H-indazole] it is > 155 µM. Next, `CSc1nc2nc3c(c-2c2nn[nH]n12)CCCC3` [MLS000071223]: > 155 µM; `CSc1nc2sc3c(c2c2nnnn12)CCCC3` [MLS000071273]: > 155 µM; `Cc1nc2scc(-c3cccs3)c2c(=O)n1-n1cccc1` [MLS000113688]: > 155 µM. With `CCc1noc(C)c1C(=O)Nc1nc(-c2cc(C)ccc2C)c(C)s1` [MLS000324834], the half-inhibitory concentration (IC50) was > 155 µM. Next, `Cc1ccc(Nc2ccc(C(N)=O)cc2[N+](=O)[O-])cc1C` [MLS000334544]: > 155 µM; `O=C(N/N=C/c1sc(N2CCOCC2)nc1-c1ccccc1)c1ccc(O)cc1` [MLS000336683]: > 155 µM. With `O=c1oc2ccccc2c2c1cnc1ccccc12` [MLS000518195], the 50% inhibitory concentration (IC50) is > 155 µM.

In the case of `Cc1nn(Cc2ccc(Cl)cc2)c(=O)n1N(C)c1ncc(C(F)(F)F)cc1Cl` [MLS000541367], the IC50 is > 155 µM. The figure for `Cc1ccccc1Nc1c(N)c(=O)oc2ccccc12` [MLS000563389] is > 155 µM; for `Cc1ccc(C)n1-n1c(C)nc2scc(-c3ccccc3)c2c1=O` [MLS000564386] it is > 155 µM; for `CCOC(=O)C(C#N)C=Nc1ccccc1OC` (stereo not given) [MLS000568396] it is > 155 µM.

For the molecule `CC(Nc1cc(N2CCOCC2)ccc1[N+](=O)[O-])c1ccccc1` (stereo not given) [MLS000573605], the IC50 was > 155 µM. The figure for `COc1ccc(-c2cc(C(F)F)n3ncc(C(=O)n4ccnc4C)c3n2)cc1` [MLS000581677] is > 155 µM; for `O=C1c2ccccc2C(=O)c2cc(S(=O)(=O)Nc3ccccc3)ccc21` [MLS000585519] it is > 155 µM; for `CC(Nc1cc(N2CCN(S(=O)(=O)N(C)C)CC2)ccc1[N+](=O)[O-])c1ccccc1` (stereo not given) [MLS000676463] it is > 155 µM.

Consider `Cc1ccc(Nc2[nH]nc(C)c2[N+](=O)[O-])c(C)c1` [MLS000700556], for which the 50% inhibitory concentration (IC50) is > 155 µM. Take `CC(C)(C)c1cc([N+](=O)[O-])cc(C(C)(C)C)c1O` [MLS000755910]: the IC50 was > 155 µM. Regarding `CCN(CC)c1ccc(/C=N/NC(=O)CNC(=O)/C=C/c2ccco2)cc1` [MLS000912185], the IC50 was > 155 µM.

Regarding `Cc1ccccc1-c1nc(C#N)c(N2CCCCC2)o1` [MLS001165046], the IC50 was > 155 µM. The figure for `COC(=O)COc1ccc2oc(=O)cc(-c3cc4cccc(OC)c4o3)c2c1` [MLS001167553] is > 155 µM; for `COC(=O)COc1ccc2oc(=O)cc(-c3cc4ccccc4o3)c2c1` [MLS001167555] it is > 155 µM; for `COc1ccc2[nH]c(C(=O)N/N=C/c3ccc(OC)c(O)c3)cc2c1` [MLS001214387] it is > 155 µM. The figure for `CCOP(=O)(CCP(=O)(OCC)OCC)OCC` [MLS002702923] is 11 µM. The figure for `C#Cc1cccc(Nc2nc(NCc3ccccc3OC)nc3ccsc23)c1` [MLS003123009] is > 155 µM.
